Source: PMC10258794, “To Fold or Not to Fold: Diastereomeric Optimization of an α-Helical Antimicrobial Peptide” (Journal of Medicinal Chemistry, 2023)
Converted amounts (≈) assume the structure as drawn. Where two headings read alike, the source gives them in different places. Positions of bridges follow the written chain, without caps; N, C: chain ends. Non-standard residues stand in square brackets, D forms with d. Residues, ends and D or L forms follow the SMILES beside them. *: point of attachment. Heptanoyl(6-Me) = CC(C)CCCCC(=O)*; dDab = NCC[C@@H](N)C(=O)O; Dab = NCC[C@H](N)C(=O)O

Legend:
[1] = tested on: Burkolderia cenocepacia; experiment: microbe, parasite or virus in culture
Description: (§1) Antimicrobial activity was determined for all peptides on E. coli W3110, P. aeruginosa PAO1, A. baumannii ATCC19606, K. pneumoniae NCTC418, and methicillin-resistant S. aureus COL and for selected peptides on P. aeruginosa PA14 and the polymyxin B-resistant derivatives PA14 4.13, PA14 4.18, and PA14 2P4 as well as the clinical isolates ZEM-1A and ZEM9A, K. pneumoniae OXA-48, Enterobacter cloacae, Stenotrophomonas maltophilia, B. cenocepacia, and Staphylococus epidermis. To determine the MIC, the broth microdilution method was used.[75] A single bacterial colony was grown in LB medium overnight at 37 °C and 180 rpm shaking. The compounds were prepared as stock solutions of 2 mg/mL in sterilized milliQ deionized water, added to the first well of 96-well sterile, polypropylene round-bottom microtiter plates (TPP, untreated, Corning Incorporated, Kennebunk, USA), and diluted serially by 1/2. […] The bacterial inoculum was prepared by measuring the absorbance of the overnight culture, which was diluted to concentration of the bacteria was quantified by measuring absorbance at 600 nm and diluted to an OD600 of 0.022 in MH medium pH 7.4 (Sigma-Aldrich, Buchs, Switzerland). The sample solutions (150 μL) were mixed with 4 μL of diluted bacterial suspension with a final inoculation of about 5 × 10^5 CFU. For each test, two columns of the plate were kept for sterility control (MH medium only) and growth control (MH medium with bacterial inoculum, no compound). […] The plates were incubated at 37 °C for 16–20 h under static conditions. 15 μL of 3-(4,5-dimethylthiazol-2-yl)-2,5-diphenyltetrazolium bromide (MTT)[76] (1 mg/mL in sterilized milliQ deionized water) was added to each well, and the plates were incubated at room temperature until MTT staining was completed. The MIC was defined as the lowest concentration of the dendrimer that inhibits the visible growth of the tested bacteria (yellow) with the unaided eye.

[2] = tested on: Enterobacter cloacae; experiment: microbe, parasite or virus in culture
Description: as §1

[3] = tested on: P. aeruginosa PA14; experiment: microbe, parasite or virus in culture
Description: as §1

[4] = tested on: P. aeruginosa ZEM-1A; experiment: microbe, parasite or virus in culture
Description: as §1

[5] = tested on: PA14 2P4 (pmrB); experiment: microbe, parasite or virus in culture
Description: as §1

[6] = tested on: PA14 4.13 (phoQ); experiment: microbe, parasite or virus in culture
Description: as §1

[7] = tested on: PA14 4.18 (pmrB); experiment: microbe, parasite or virus in culture
Description: as §1

[8] = tested on: P. aeruginosa ZEM9A; experiment: microbe, parasite or virus in culture; type: cell-based, Pseudomonas aeruginosa; conditions: Pseudomonas aeruginosa, ZEM9A; MDR strain; MH broth pH 7.4, 16–20 h, 37 °C
Description: as §1

[9] = tested on: K. pneumoniae Oxa-48; experiment: MIC broth microdilution, K. pneumoniae Oxa-48; type: cell-based, Klebsiella pneumoniae
Description: as §1

[10] = tested on: Stenotrophomonas maltophilia; experiment: microbe, parasite or virus in culture; type: cell-based
Description: as §1

[11] = tested on: Staphylococcus epidermis; experiment: MIC broth microdilution, Staphylococcus epidermis; type: cell-based; conditions: pH 7.4
Description: as §1

[12] = tested on: HEK293 cells; experiment: Alamar blue cytotoxicity, HEK293; type: cell-based, human; conditions: 24 h, mean ± SD, n = 3, read-out: Toxicity on HEK293 cells
Description: (§2) The A549 human lung adenocarcinoma cells are derived from a patient and were kindly given to us by Dr. Georgia Konstatinidou (Pharmacology Institute, Bern University). HEK293T cells were obtained from ATCC (CRL-11268). A549 and HEK293 were cultured in an incubator at 37 °C with 5% CO2 in RPMI-1640 (Gibco) and DMEM (Gibco) containing 10% fetal bovine serum (Thermo Fisher), 100 I.U./mL penicillin, and 100 μg/mL streptomycin (Gibco).
(§3) The viability of the cells was assessed with an AlamarBlue assay (ThermoFisher). Cells were seeded into 96-well plates, 4000 cells/well (HEK293) and 8000 cells/well (A549), the day before the experiment. Cells were then treated with the increasing concentration of the compound and incubated for 24 h at 37 °C in the presence of 5% CO2. The next day, the medium was removed and replaced by a 10% AlamarBlue solution in full growth medium (DMEM or RPMI-1640). The cells were incubated for 3–5 h at 37 °C with 5% CO2 in a humidified atmosphere. The fluorescence was then measured on a Tecan Infinite M1000 Pro plate reader at λex 560 nm and λem 590 nm. The value was normalized according to the untreated cells.

[13] = tested on: A549 cells; experiment: Alamar blue cytotoxicity, A549; type: cell-based, human; conditions: 24 h, mean ± SD, n = 3, read-out: Toxicity on A549 lung cancern cells
Description: as §2, §3

[14] = tested on: A. baumannii ATCC19606
Description: as §1

[15] = tested on: E. coli W3110; conditions: MH broth pH 7.4, 16–20 h, 37 °C
Description: as §1

[16] = tested on: K. pneumoniae NCTC418
Description: as §1

[17] = tested on: P. aeruginosa PAO1
Description: as §1

[18] = tested on: S. aureus COL MRSA
Description: as §1

[19] = tested on: S. aureus Newman
[20] = MDR strain, MH broth pH 7.4, 16–20 h, 37 °C
[21] = MH broth pH 7.4, 16–20 h, 37 °C
[22] = supplementary CSV, ranges of Table 1 given as one number

CC(C)CCCCC(=O)N[C@@H](CCN)C(=O)N[C@H](C(=O)N[C@@H](CCN)C(=O)N[C@H]1CCNC(=O)[C@H]([C@@H](C)O)NC(=O)[C@H](CCN)NC(=O)[C@H](CCN)NC(=O)[C@H](CC(C)C)NC(=O)[C@@H](Cc2ccccc2)NC(=O)[C@@H](CCN)NC1=O)[C@@H](C)O [Pol B, polymyxin B, reference compound] ({Heptanoyl(6-Me)}-[Dab]T[Dab][Dab][dDab][dF]L[Dab][Dab]T; lactam 4-C)
MIC ([1]; Burkholderia cenocepacia, pH 7.4, read-out: MIC Burkolderia cenocepacia): > 16 µg/mL | MIC ([2]; Enterobacter cloacae, pH 7.4, read-out: MIC Enterobacter cloacae): 1 µg/mL (≈ 0.841 µM) | MIC ([3]; Pseudomonas aeruginosa, PA14, pH 7.4, read-out: MIC PA14): < 0.125 µg/mL | MIC ([4]; Pseudomonas aeruginosa, ZEM1A, pH 7.4, read-out: MIC ZEM-1A): < 0.125 µg/mL | MIC ([5]; Pseudomonas aeruginosa, PA14, pH 7.4, read-out: MIC PA14 2P4 (pmrB)): 1 µg/mL (≈ 0.841 µM) | MIC ([6]; Pseudomonas aeruginosa, PA14, pH 7.4, read-out: MIC PA14 4.13 (phoQ)): 0.25 µg/mL (≈ 0.21 µM) | MIC ([7]; Pseudomonas aeruginosa, PA14, pH 7.4, read-out: MIC PA14 4.18 (pmrB)): 1 µg/mL (≈ 0.841 µM) | MIC [8]: 2 µg/mL (≈ 1.68 µM) | MIC ([9]; Klebsiella pneumoniae, OXA48, pH 7.4, read-out: MIC K. pneumoniae Oxa-48): 2 µg/mL (≈ 1.68 µM) | MIC ([10]; Stenotrophomonas maltophilia, MDR strain, MH broth pH 7.4, 16–20 h, 37 °C): 0.5 µg/mL (≈ 0.42 µM)

CC(C)C[C@H](NC(=O)[C@H](CC(C)C)NC(=O)[C@H](CC(C)C)NC(=O)[C@H](CCCCN)NC(=O)[C@H](CC(C)C)NC(=O)[C@H](CC(C)C)NC(=O)[C@@H](CCCCN)NC(=O)[C@H](CC(C)C)NC(=O)[C@H](CC(C)C)NC(=O)[C@@H](CCCCN)NC(=O)[C@@H](N)CCCCN)C(N)=O [HP3, KkLLkLLKLLL]
MIC Burkolderia cenocepacia [1, 20]: >64 µg/mL | MIC B. cenocepacia ([1]; supplementary CSV): > 64 µg/mL | MIC Enterobacter cloacae ([2]; pH 7.4): 4 µg/mL (≈ 3.03 µM) | MIC PA14 [3, 21]: 4 µg/mL (≈ 3.03 µM) | MIC P. aeruginosa PA14 ([3]; supplementary CSV): 4 µg/mL (≈ 3.03 µM) | MIC ZEM-1A ([4]; pH 7.4): 2 µg/mL (≈ 1.51 µM) | MIC P. aeruginosaPA14 2P4 ([5]; supplementary CSV): 32 µg/mL (≈ 24.2 µM) | MIC P. aeruginosa PA14 4.13 ([6]; supplementary CSV): 8 µg/mL (≈ 6.05 µM) | MIC P. aeruginosa PA14 4.18 ([7]; supplementary CSV): 32 µg/mL (≈ 24.2 µM) | MIC K. pneumoniae Oxa-48 [9, 20]: 4 µg/mL (≈ 3.03 µM) | MIC Stenotrophomonas maltophilia ([10]; pH 7.4): 4 µg/mL (≈ 3.03 µM) | MIC Staphylococcus epidermis [11]: 4 µg/mL (≈ 3.03 µM) | IC50 [12]: 69 ± 2.6 µM | IC50 [13]: 5.4 ± 4.4 µM | MIC A. baumannii ATCC19606 [14, 21]: 2 µg/mL (≈ 1.51 µM) | MIC A. baumannii ATCC19606 [14, 22]: 2 µg/mL (≈ 1.51 µM) | MIC E. coli W3110 [15]: 2 µg/mL (≈ 1.51 µM) | MIC K. pneumoniae NCTC418 [16, 21]: 8 µg/mL (≈ 6.05 µM) | MIC K. pneumoniae NCTC418 [16, 22]: 8 µg/mL (≈ 6.05 µM) | MIC P. aeruginosa PAO1 [17, 21]: 4 µg/mL (≈ 3.03 µM) | MIC P. aeruginosa PAO1 [17, 22]: 4 µg/mL (≈ 3.03 µM) | MIC S. aureus COL MRSA [18, 21]: 2 to 4 µg/mL | MIC S. aureus COL [18, 22]: 3 µg/mL (≈ 2.27 µM) | MIC S. aureus Newman [19, 21]: 2 µg/mL (≈ 1.51 µM) | MIC S. aureus Newmann ([19]; supplementary CSV): 2 µg/mL (≈ 1.51 µM)
